Several values for one entry are separate records, joined by “and”; a condition that tells them apart may be missing. Equal values may be shown once. Entries after “also recorded” stand apart in the source; their conditions may differ.
What was measured:
[1] = tested on: intermediate-2 or high-risk myelofibrosis (MF) relapsed/refractory to JAK inhibitor; assay: Phase 2 study: spleen response (spleen volume reduction, SVR, by MRI at week 24); format: in vivo, human
Source text: (§1) Diagnosis of primary, post-essential thrombocythemia, or post-polycythemia vera MF was required; other eligibility criteria included measurable splenomegaly (by magnetic resonance imaging [MRI]), active MF-related systemic symptoms and platelet count ≥75×10^9/L. Primary endpoints were: spleen response rate (% achieving ≥35% spleen volume reduction [SVR] by MRI at week 24); and symptom response rate (% achieving ≥50% reduction in total symptom score [TSS] per the Myelofibrosis Symptom Assessment Form (MFSAF) v2 at week 24). Key secondary endpoints included safety, overall survival (OS), treatment response, molecular response, and pharmacokinetic and pharmacodynamic relationships.

[2] = tested on: intermediate-2 (int-2) or high-risk myelofibrosis (MF); settings: 33-patient pilot study, Tefferi 2015; cited from earlier work
[3] = tested on: patients with essential thrombocythemia; settings: phase 2, essential thrombocythemia; cited from earlier work
human telomerase = settings: Asai 2003; Herbert 2005; cited from earlier work
[4] = tested on: intermediate-2 or high-risk myelofibrosis (MF) relapsed/refractory to JAK inhibitor; assay: Phase 2 study: overall survival (OS); format: in vivo, human
Source text: as §1

telomerase activity = assay: Pharmacodynamics: telomerase activity (TA) reduction from baseline in study subjects; format: in vivo, human; settings: for subjects with Telomerase Activity >30% reduction from baseline / subjects with Telomerase Activity >50% reduction from baseline: both arms
Source text: In other embodiments of the invention, telomerase activity and level of hTERT expression in biological samples obtained from patients can be determined to evaluate pharmacodynamic effects and/or monitor patients being treated with a telomerase inhibition. The telomerase activity can be measured using the TRAP (Telomeric Repeat Amplification Protocol) telomerase activity assay. The level of hTERT expression can be determined by measuring the level of hTERT RNA expression in the cells in the biological sample using northern blots or serial analysis of gene expression (SAGE) or other methods.
(§2) Telomerase activity and hTERT was analyzed to evaluate pharmacodynamic effects for imetelstat.

[5] = tested on: various cancer cell lines and tumor xenografts in mice; settings: cited from earlier work
hTERT RNA expression = assay: Pharmacodynamics: hTERT RNA level reduction from baseline, whole blood; format: in vivo, human; settings: both arms
Description: as §2

[6] = Phase 2 study: adverse events on treatment; format: in vivo, human
Source text: as §1

[7] = tested on: intermediate-2 or high-risk myelofibrosis (MF) relapsed/refractory to JAK inhibitor; assay: Phase 2 study: symptom response (total symptom score, TSS, MFSAF v2 at week 24); format: in vivo, human; settings: 9.4 mg/kg
Source text: as §1

[8] = 9.4 mg/kg, all with baseline TL data, N = 53
[9] = 9.4 mg/kg arm, Non-TN (MUT), second clinical cutoff
[10] = 9.4 mg/kg arm, Triple Negative (TN), second clinical cutoff
[11] = 4.7 MG/KG, all subjects with baseline TL (N 40)
[12] = 4.7 MG/KG, all subjects with baseline TL (N 40), first clinical cutoff
[13] = 4.7 MG/KG, baseline TL <=Median Value
[14] = 4.7 MG/KG, baseline TL >Median Value
[15] = 9.4 MG/KG, all subjects with baseline TL (N 53)
[16] = 9.4 MG/KG, baseline TL <=Median Value
[17] = 9.4 MG/KG, baseline TL >Median Value
[18] = Spleen Response at wk 24 by IRC: No
[19] = Spleen Response at wk 24 by IRC: Yes
[20] = all with baseline TL data, N = 53

With “imetelstat: 13-mer oligonucleotide that targets the RNA template of human telomerase; first-in-class telomerase inhibitor (TAGGGTTAGACAA; 5' palmitoyl amidopropyl, thio-phosphoramidate, sodium salt, further chemistry not given here)” the “responses (SVR or TSS) in patients with HMR having greater than one mutation” value ([1]; 9.4 mg/kg) was “responses were observed”, the “rate of response (SVR or TSS), LMR or HMR with only 1 mutation compared to HMR with more than 1 mutations” value ([1]; 9.4 mg/kg arm, week 24) was “enriched” and the “rate of response (SVR or TSS), TN group compared to Non-TN group” value ([1]; 9.4 mg/kg arm, week 24) was “enriched”. The “rate of response (SVR or TSS), shorter baseline TL compared to longer TL” value ([1]; 9.4 mg/kg arm, week 24) was “enriched; also recorded: higher rate of response”, the “subjects with SVR >= 35% at week 24 by IRC, No” value ([1]; 9.4 mg/kg, Longer TL (>Median value), 24 subjects) was 23 (92.7%) and the “subjects with SVR >= 35% at week 24 by IRC, No” value ([1]; 9.4 mg/kg, Shorter TL (<= Median value), 29 subjects) was 24 (82.75%). For the same substance, the “subjects with SVR >= 35% at Week 24 by IRC, Yes” value [1, 8] was “(10.5%)”, the “subjects with SVR >= 35% at week 24 by IRC, No” value [1, 8] was “(89.5%)” and the “clinical activity and safety profile” value [2] was “Clinical activity and an acceptable safety profile”. The “JAK2 V617F and CALR mutant allele burdens” value [3] was “significant reduction”, the platelet-lowering activity [3] was “platelet-lowering activity” and the “inhibition of telomerase enzymatic activity” value (human telomerase) was “potent competitive inhibitor”. The “OS trend, shorter baseline TL (<= median TL)” value ([4]; 9.4 mg/kg arm) was “better OS trend”, the “Median survival, months (95% CI)” value [4, 9] was 24.6 (19.7, NE) months and the “Percentage of Subjects Who Died” value [4, 9] was 21/41 (51.2%). The “Median survival, months (95% CI)” value ([4]; 9.4 mg/kg arm, Non-TN subjects, first clinical cutoff) was 23.6 months, the “OS HR (Hazard Ratio) (95% CI)” value ([4]; 9.4 mg/kg arm, Non-TN vs TN, second clinical cutoff) was 2.60 (0.89, 7.59) and the “Median survival, months (95% CI)” value ([4]; 9.4 mg/kg arm, TN subjects, first clinical cutoff) was “not estimable”. The “Median survival, months (95% CI)” value [4, 10] was “NE (23.2, NE)”, the “Percentage of Subjects Who Died” value [4, 10] was 4/16 (25.0%) and the “18-months survival rate % (95% CI)” value [4, 11] was 68.2 %. The “24-months survival rate % (95% CI)” value [4, 11] was 39.6 %, the “Number of events (OS)” value [4, 12] was 20 and the “Overall Survival (months) Median (95% CI)” value (from here on “Overall Survival … (95% CI)”) [4, 12] was 22.3 (18.2, NE) months. The “18-months survival rate % (95% CI)” value [4, 13] was 76.7 %, the “24-months survival rate % (95% CI)” value [4, 13] was 34.1 % and the “Number of events (%) (OS)” value ([4]; 4.7 MG/KG, baseline TL <=Median Value, first clinical cutoff) was 10(25.0%). For the same substance, the “18-months survival rate % (95% CI)” value [4, 14] was 61.0 %, the “24-months survival rate % (95% CI)” value [4, 14] was 46.6 % and the “Number of events (%) (OS)” value ([4]; 4.7 MG/KG, baseline TL >Median Value, first clinical cutoff) was 10(25.0%). The “Overall Survival … (95% CI)” value ([4]; 4.7 MG/KG, longer baseline TL (>Median Value), first clinical cutoff) was 22.3 (16.6, NE) months and 22.3 months, the “Overall Survival … (95% CI)” value ([4]; 4.7 MG/KG, shorter baseline TL (<=Median Value), first clinical cutoff) was 20.3 (17.2, NE) months and 20.3 months and the “18-months survival rate % (95% CI)” value [4, 15] was 75.9 %. The “24-months survival rate % (95% CI)” value [4, 15] was 54.2 %, the “Number of events (OS)” value ([4]; 9.4 MG/KG, all subjects with baseline TL (N 53), first clinical cutoff) was 18 and the “18-months survival rate % (95% CI)” value [4, 16] was 81.2 %. The “24-months survival rate % (95% CI)” value [4, 16] was 59.3 %, the “Number of events (%) (OS)” value ([4]; 9.4 MG/KG, baseline TL <=Median Value, first clinical cutoff) was 8(15.1%) and the “18-months survival rate % (95% CI)” value [4, 17] was 69.8 %. For the same substance, the “24-months survival rate % (95% CI)” value [4, 17] was 47.6 %, the “Number of events (%) (OS)” value ([4]; 9.4 MG/KG, baseline TL >Median Value, first clinical cutoff) was 10(18.9%) and the “Overall Survival … (95% CI)” value ([4]; 9.4 MG/KG, longer baseline TL (>Median Value), first clinical cutoff) was 22.8 months. For the same substance, the “Overall Survival … (95% CI)” value ([4]; 9.4 MG/KG, shorter baseline TL (<=Median Value), first clinical cutoff) was “not estimable”, the “PD effect (telomerase activity and hTERT RNA reduction), 9.4 vs […]” value (telomerase activity; 9.4 mg/kg arm vs […] arm) was “dose-dependent PD effect” and the “subjects achieving TA >=30% decrease from baseline at any timepoint” value (telomerase activity; 4.7 MG/KG, 34 subjects with baseline) was 14 (41.2%). For the same substance, the “subjects achieving TA >=30% decrease from baseline at any timepoint” value (telomerase activity; 9.4 MG/KG, 45 subjects with baseline) was 28 (62.2%), the “subjects with Telomerase Activity >30% reduction from baseline” value (telomerase activity; [18]) was 41/70 (58.6%) and the “subjects with Telomerase Activity >50% reduction from baseline” value (telomerase activity; [18]) was 34/70 (48.6%). For the same substance, the “subjects with Telomerase Activity >30% reduction from baseline” value (telomerase activity; [19]) was 3/4 (75%), the “subjects with Telomerase Activity >50% reduction from baseline” value (telomerase activity; [19]) was 2/4 (50%) and the “subjects with Telomerase Activity >30% reduction from baseline” value (telomerase activity; TSS Response at wk 24: No) was 29/56 (51.8%). The “subjects with Telomerase Activity >50% reduction from baseline” value (telomerase activity; TSS Response at wk 24: No) was 24/56 (42.9%), the “subjects with Telomerase Activity >30% reduction from baseline” value (telomerase activity; TSS Response at wk 24: Yes) was 15/18 (83.3%) and the “subjects with Telomerase Activity >50% reduction from baseline” value (telomerase activity; TSS Response at wk 24: Yes) was 12/18 (66.7%). For the same substance, the “telomerase activity and cell proliferation” value [5] was “inhibits telomerase activity and cell proliferation”, the “subjects with hTERT>50% reduction from baseline” value (hTERT RNA expression; TSS Response at wk 24: No) was 45/81 (55.6%) and the “subjects with hTERT>50% reduction from baseline” value (hTERT RNA expression; TSS Response at wk 24: Yes) was 15/24 (62.5%). The “Imetelstat-related hepatic toxicities, confirmed by independent Hepatic Review Committee” value [6] was “not observed”, the “subjects with TSS >= 50% decrease at week 24, No” value ([7]; Longer TL (>Median value), 24 subjects) was 18 (75%) and the “subjects with TSS >= 50% decrease at week 24, No” value ([7]; Shorter TL (<= Median value), 29 subjects) was 19 (65.6%). For the same substance, the “subjects with TSS >= 50% decrease at week 24, No” value [7, 20] was “(69.8%)” and the “subjects with TSS >= 50% decrease at week 24, Yes” value [7, 20] was “(30.2%)”.
